Data on 23 compounds can be found in patent US8329904B2, “Azacyclic derivatives” (Hoffmann-La Roche Inc., priority 2009, dated 2012).

The assay has as its target T1, human HSL (Homo sapiens, UniProt Q05469).
T1 construct: overlapping PCR to generate a full length human HSL ORF with a 3′-His6 tag; His6 (C); made in house; host or cells: High 5 insect cells (baculovirus, pFast-BAC)
T1 sequence (Q05469 1-1076): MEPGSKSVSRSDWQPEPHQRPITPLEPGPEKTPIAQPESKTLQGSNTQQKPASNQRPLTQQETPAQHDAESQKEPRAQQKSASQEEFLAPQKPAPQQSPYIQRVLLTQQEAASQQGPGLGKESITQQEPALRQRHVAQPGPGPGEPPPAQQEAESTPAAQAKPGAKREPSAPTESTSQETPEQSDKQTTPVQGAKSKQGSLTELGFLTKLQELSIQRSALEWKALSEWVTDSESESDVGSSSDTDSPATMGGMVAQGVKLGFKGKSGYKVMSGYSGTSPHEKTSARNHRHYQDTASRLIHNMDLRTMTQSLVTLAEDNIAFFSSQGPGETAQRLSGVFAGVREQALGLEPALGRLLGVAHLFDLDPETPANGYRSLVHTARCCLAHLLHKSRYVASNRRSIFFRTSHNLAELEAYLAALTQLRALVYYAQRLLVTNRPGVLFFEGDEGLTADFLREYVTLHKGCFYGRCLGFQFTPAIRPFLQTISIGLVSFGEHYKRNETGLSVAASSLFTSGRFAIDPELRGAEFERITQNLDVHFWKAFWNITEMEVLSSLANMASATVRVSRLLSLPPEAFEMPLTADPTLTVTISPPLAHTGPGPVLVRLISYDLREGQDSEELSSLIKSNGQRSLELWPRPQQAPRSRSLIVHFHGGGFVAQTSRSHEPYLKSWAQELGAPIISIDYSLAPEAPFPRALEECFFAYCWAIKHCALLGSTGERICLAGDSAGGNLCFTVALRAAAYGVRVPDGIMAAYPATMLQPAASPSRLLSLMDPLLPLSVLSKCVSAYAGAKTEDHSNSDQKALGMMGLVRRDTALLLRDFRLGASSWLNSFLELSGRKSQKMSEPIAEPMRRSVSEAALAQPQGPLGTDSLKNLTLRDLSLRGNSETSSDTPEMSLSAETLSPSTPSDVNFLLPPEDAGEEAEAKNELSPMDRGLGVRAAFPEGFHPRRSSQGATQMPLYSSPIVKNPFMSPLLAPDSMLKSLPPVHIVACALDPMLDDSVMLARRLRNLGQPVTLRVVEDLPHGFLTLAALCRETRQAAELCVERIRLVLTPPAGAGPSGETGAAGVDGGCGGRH
As to the kind of experiment: Human Hormone-Sensitive Lipase (HSL) Enzyme Inhibition Assay. The class given is biochemical. To be noted: colorimetric assay, 2,3-dimercapto-1-propanol tributyrate (DMPT) substrate, 37° C. for 20 minutes, absorbance at 405 nm; read-out: HSL hum IC50. The method, then: Production of Human Full Length Hormone Sensitive Lipase-His^6
1) Cloning: cDNA was prepared from commercial human brain polyA-+ RNA and used as a template in overlapping PCR to generate a full length human HSL ORF with a 3′-His6 tag. This full length insert was cloned into the pFast-BAC vector and the DNA-sequence of several single clones was verified. DNA from a correct full length clone with the 3′His6 tag was used to transform the E. coli strain DH10BAC. Resulting bacmid DNA was used to generate a titered baculovirus stock for protein generation.
Cells were thawed. […] was done at 3×30 sec., Lubrol PX was added to 0.2% final concentration followed by stirring for 15 min. at 4° C. and centrifugation at 25 k×g, 60 min., 4° C. […] Supernatant was removed, the resin washed in the centrifuge vessel using 5 volumes of Base Buffer containing 0.2% Lubrol PX. Centrifugation was done again, then the supernatant discarded. The resin wass poured onto a 0.8 μm membrane in a disposable filter unit (Nalge 450-0080), and washed with 5 volumes of Base Buffer containing 0.2% Lubrol PX. It was then washed with 30 volumes of Base Buffer containing 60 mM imidazole pH 7.5 at 4° C. The protein was eluated with 5 volumes of 25 mM Tris-Cl, 300 mM NaCl, 200 mM imidazole, 10 mM 2-mercaptoethanol, pH 7.5 at 4° C. by tumbling resin with buffer end-over-end, 30 min., 4° C. The resin was captured on a 0.2 μm membrane disposable filter unit (Millipore SCGP U02 RE) and the eluate collected in the reservoir. The eluate was concentrated using a 30 k MWCO centrifugal filter device (Sartorius Vivascience Vivacell 100, VC1022), to 20 ml. It was then dialyzed overnight at 4° C., two times against 2 L of 10% glycerol, 25 mM Tris-Cl, 300 mM NaCl, 0.2 mM EDTA, 0.2 mM DTT, pH 7.5 at 4° C. The protein was filtered using a 0.22 μm disposable filter unit (Millipore SCGP00525). The protein concentration was calculated from absorbance at 280 nm, using 280=0.67 cm-1 mg-1. […] The protein was stored at −80° C.
Human Hormone-Sensitive Lipase (HSL) Enzyme Inhibition Assay:
HSL enzyme activity was measured by a colorimetric assay using 2,3-dimercapto-1-propanol tributyrate (Aldrich, St. Louis, Mo.) as a substrate. Typically, 1.5 mM 2,3-dimercapto-1-propanol tributyrate (DMPT) in 100 mM MOPS, pH 7.2, 0.2 mg/ml fatty acid-free BSA was prepared by sonication at 4° C. to homogenous suspension. Test compounds (2 mM stock in DMSO) were diluted 3 fold in series in DMSO. Compound solutions were diluted 24 fold in 1.5 mM DMPT containing solution and 18 ul per well was added to 384-well microplates (Corning Costar). Twelve microliters per well of human HSL (15 ug/ml) was added and the reaction mixture was incubated at 37° C. for 20 minutes. Six microliters of 12 mM dithio-bis-(2-nitrobenzoic acid) (DTNB) in DMSO plus 1.2% SDS and 0.6% Triton X-100 were added and the mixture was incubated at room temperature for 15 minutes. Product production was monitored by reading absorbance at 405 nm on an Envision Reader (PerkinElmer Life and Analytical Sciences, Shelton, Conn.).
As to `O=C1N(c2ccc(OCC(F)(F)F)cc2)CCC12CCN(S(=O)(=O)c1ccccc1)CC2` [Example 26, 8-Benzenesulfonyl-2-[4-(2,2,2-trifluoro-ethoxy)-phenyl]-2,8-diaza-spiro[4.5]decan-1-one], the concentration for half-maximal inhibition (IC50) worked out at 60 nM. Consider `O=C1N(c2ccc(OC(F)(F)F)cc2)CCC12CCN(S(=O)(=O)c1cccs1)CC2` [Example 28, 8-(Thiophene-2-sulfonyl)-2-(4-trifluoromethoxy-phenyl)-2,8-diaza-spiro[4.5]decan-1-one], for which the IC50 is 40 nM. For `CCc1ccc(N2CCC3(CCN(S(=O)(=O)c4cccs4)CC3)C2=O)cc1` [Example 29, 2-(4-Ethyl-phenyl)-8-(thiophene-2-sulfonyl)-2,8-diaza-spiro[4.5]decan-1-one] the value was 50 nM.

For the compound `CCc1ccc(N2CCC3(CCN(S(=O)(=O)CCC(F)(F)F)CC3)C2=O)cc1` [Example 30, 2-(4-Ethyl-phenyl)-8-(3,3,3-trifluoro-propane-1-sulfonyl)-2,8-diaza-spiro[4.5]decan-1-one], the IC50 is 360 nM.

Consider `CCCc1ccc(N2CCC3(CCN(C(=O)CC(C)(C)C)CC3)C2=O)cc1` [Example 31, 8-(3,3-Dimethyl-butyryl)-2-(4-propyl-phenyl)-2,8-diaza-spiro[4.5]decan-1-one], for which the IC50 was found to be 80 nM. The same measure for `CCc1ccc(N2CCC3(CCN(S(=O)(=O)CC(C)(C)C)CC3)C2=O)cc1` [Example 32, 8-(2,2-Dimethyl-propane-1-sulfonyl)-2-(4-ethyl-phenyl)-2,8-diaza-spiro[4.5]decan-1-one]: 80 nM; for `O=C1N(c2ccc(C3CC3)cc2)CCC12CCN(S(=O)(=O)c1ccccc1Cl)CC2` [Example 33, 8-(2-Chloro-benzenesulfonyl)-2-(4-cyclopropyl-phenyl)-2,8-diaza-spiro[4.5]decan-1-one]: 30 nM; for `CSc1ccc(N2CCC3(CCN(S(=O)(=O)c4ccccc4Cl)CC3)C2=O)cc1` [Example 34, 8-(2-Chloro-benzenesulfonyl)-2-(4-methylsulfanyl-phenyl)-2,8-diaza-spiro[4.5]decan-1-one]: 100 nM. As to `CC(C)(C)CC(=O)N1CCC2(CC1)CCN(c1ccc(C3CC3)cc1)C2=O` [Example 35, 2-(4-Cyclopropyl-phenyl)-8-(3,3-dimethyl-butyryl)-2,8-diaza-spiro[4.5]decan-1-one], the IC50 turned out to be 170 nM.

Regarding `O=C1N(c2ccc(C3CC3)cc2)CCC12CCN(S(=O)(=O)c1cccs1)CC2` [Example 36, 2-(4-Cyclopropyl-phenyl)-8-(thiophene-2-sulfonyl)-2,8-diaza-spiro[4.5]decan-1-one], the IC50 was found to be 50 nM. For `O=C(CC1CCCC1)N1CCC2(CC1)CCN(c1ccc(C3CC3)cc1)C2=O` [Example 37, 8-(2-Cyclopentyl-acetyl)-2-(4-cyclopropyl-phenyl)-2,8-diaza-spiro[4.5]decan-1-one] the value was 220 nM; for `O=C1N(c2ccc(C3CC3)cc2)CCC12CCN(S(=O)(=O)Cc1ccccc1)CC2` [Example 38, 2-(4-Cyclopropyl-phenyl)-8-phenylmethanesulfonyl-2,8-diaza-spiro[4.5]decan-1-one], 60 nM.

For `CCCS(=O)(=O)N1CCC2(CCN(c3ccc(C4CC4)cc3)C2=O)CC1` [Example 39, 2-(4-Cyclopropyl-phenyl)-8-(propane-1-sulfonyl)-2,8-diaza-spiro[4.5]decan-1-one], the IC50 turned out to be 200 nM. For `CC(C)(C)CC(=O)N1CCC2(CC1)CCN(c1ccc(CC(F)(F)F)cc1)C2=O` [Example 40, 8-(3,3-Dimethyl-butyryl)-2-[4-(2,2,2-trifluoro-ethyl)-phenyl]-2,8-diaza-spiro[4.5]decan-1-one] the value was 80 nM.

Consider `CCc1ccc(N2CCC3(CCN(S(=O)(=O)c4ccc(C)s4)CC3)C2=O)cc1` [Example 41, 2-(4-Ethyl-phenyl)-8-(5-methyl-thiophene-2-sulfonyl)-2,8-diaza-spiro[4.5]decan-1-one], for which the IC50 came out at 60 nM. For `Cc1ccc(S(=O)(=O)N2CCC3(CCN(c4ccc(OC(F)(F)F)cc4)C3=O)CC2)s1` [Example 42, 8-(5-Methyl-thiophene-2-sulfonyl)-2-(4-trifluoromethoxy-phenyl)-2,8-diaza-spiro[4.5]decan-1-one] the value was 40 nM; for `CCC(C)c1ccc(N2CCC3(CCN(S(=O)(=O)c4cccs4)CC3)C2=O)cc1` (centres unmarked) [Example 43, 2-(4-sec-Butyl-phenyl)-8-(thiophene-2-sulfonyl)-2,8-diaza-spiro[4.5]decan-1-one], 40 nM. In the case of `CCC(C)c1ccc(N2CCC3(CCN(S(=O)(=O)N4CCOCC4)CC3)C2=O)cc1` (centres unmarked) [Example 44, 2-(4-sec-Butyl-phenyl)-8-(morpholine-4-sulfonyl)-2,8-diaza-spiro[4.5]decan-1-one], the IC50 came out at 100 nM.

For `CCC(C)c1ccc(N2CCC3(CCN(S(=O)(=O)c4ccc(C)s4)CC3)C2=O)cc1` (centres unmarked) [Example 45, 2-(4-sec-Butyl-phenyl)-8-(5-methyl-thiophene-2-sulfonyl)-2,8-diaza-spiro[4.5]decan-1-one], the IC50 was 60 nM. The same measure for `CCC(C)c1ccc(N2CCC3(CCN(C(=O)CC(C)(C)C)CC3)C2=O)cc1` (centres unmarked) [Example 46, 2-(4-sec-Butyl-phenyl)-8-(3,3-dimethyl-butyryl)-2,8-diaza-spiro[4.5]decan-1-one]: 150 nM; for `O=C1N(CCc2ccc(Cl)cc2)CCC12CCN(S(=O)(=O)c1ccccc1Cl)CC2` [Example 47, 8-(2-Chloro-benzenesulfonyl)-2-[2-(4-chloro-phenyl)-ethyl]-2,8-diaza-spiro[4.5]decan-1-one]: 40 nM; for `CS(=O)(=O)Oc1ccc(N2CCC3(CCN(S(=O)(=O)c4ccccc4Cl)CC3)C2=O)cc1` [Example 48, Methanesulfonic acid 4-[8-(2-chloro-benzenesulfonyl)-1-oxo-2,8-diaza-spiro[4.5]dec-2-yl]-phenyl ester]: 30 nM. For `O=C1N(Cc2ccc(OC(F)(F)F)cc2)CCC12CCN(S(=O)(=O)c1ccccc1Cl)CC2` [Example 49, 8-(2-Chloro-benzenesulfonyl)-2-(4-trifluoromethoxy-benzyl)-2,8-diaza-spiro[4.5]decan-1-one] the value was 150 nM.
